Results on 24 compounds are retold here after ChEMBL document CHEMBL3813668, “Design, synthesis, and biological evaluation of anti-EV71 agents” (Bioorg Med Chem Lett, 2016).

pEC50: −log10 of the molar value. Bounds are passed on as bounds.

A short description of series [1]: Metabolic stability in mouse plasma assessed as compound remaining after 2 hrs. The series is classed as ADME, cell-free. The settings on record: read-out: Stability.
A further series deals with rhinovirus B14. Put plainly: Antiviral activity against HRV-14 infected in H1HeLa cells after 2 days by XTT assay. It counts as functional, organism-based. The conditions noted are these: Rhinovirus B, H1-HeLa, 48 h. (In general: Formazan colour is commonly taken as a measure of viable cells.)
For a further series, the system named is Enterovirus A71. Put plainly: Antiviral activity against Enterovirus 71/Shenzhen/120F1/09 infected in human RD cells assessed as reduction in virus induced cell death after 72 hrs by CCK-8 assay. The settings on record: Enterovirus A, Shenzhen/120F1/09, RD. It counts as functional, organism-based.
Series [2] can be described thus: Volume of distribution in mouse at 2 mg/kg, iv. It counts as ADME, organism-based. The conditions noted are these: in vivo.
The nature of series [3]: Clearance in mouse at 2 mg/kg, iv. The series is classed as ADME, organism-based. The settings on record: in vivo.
Series [4] is described as follows: Half life in mouse at 2 mg/kg, iv. The conditions noted are these: in vivo. The series is classed as ADME, organism-based.
A short description of series [5]: AUC in mouse at 2 mg/kg, iv. The series is classed as ADME, organism-based. The settings on record: in vivo.
Series [6] in a line: Cmax in mouse at 5 mg/kg, ip. The conditions noted are these: in vivo. The series is classed as ADME, organism-based. Also on record: dose 5 mg/kg, route intraperitoneal.
Series [7] in a line: Half life in mouse at 5 mg/kg, ip. It counts as ADME, organism-based. The conditions noted are these: in vivo.
Series [8] in a line: Bioavailability in mouse at 5 mg/kg, ip. The conditions noted are these: in vivo. It counts as ADME, organism-based.
A short description of series [9]: AUC in mouse at 5 mg/kg, ip. The series is classed as ADME, organism-based. The settings on record: in vivo.

Take `CCOC(=O)/C=C/[C@H](C[C@@H]1CCNC1=O)NC(=O)[C@H](Cc1ccc(F)cc1)n1cccc(NC(=O)c2cc(C)on2)c1=O`: the remaining at 2 h in series [1] was 1.4%. In the series with rhinovirus B14, the pEC50 (as a rule, −log10 of the EC50, conventionally taken in molar units) is 8.70.
As to `CCOC(=O)/C=C/[C@H](C[C@@H]1CCNC1=O)NC(=O)[C@H](Cc1ccc(F)c(F)c1)n1ccc2cc(-c3ccccc3F)[nH]c2c1=O`, in series [1], the remaining at 2 h was found to be 0%. Also, the pEC50 with Enterovirus A71 is 5.99.
The matching figures for `Cc1cc(C(=O)N[C@H](C(=O)C[C@@H](Cc2ccc(F)cc2)C(=O)N[C@H](/C=C/C(=O)N2CCc3cc(Cl)ccc32)C[C@@H]2CCNC2=O)C(C)C)no1`: 26% and 6.74.
As to `Cc1cc(C(=O)N[C@H](C(=O)C[C@@H](Cc2ccc(F)cc2)C(=O)N[C@H](/C=C/C(=O)OCc2ccccc2)C[C@@H]2CCNC2=O)C(C)C)no1`, in series [1], the remaining at 2 h turned out to be 2.4%. Also, in the series with Enterovirus A71, the pEC50 is 6.85.
For the compound `CCOC(=O)/C=C/[C@H](C[C@@H]1CCNC1=O)NC(=O)[C@H](Cc1ccc(F)c(F)c1)n1ccc2ccn(Cc3ccccc3)c2c1=O`, the pEC50 with Enterovirus A71 was less than 4.00.
Turning to `O=C1OCC/C1=C\[C@H](C[C@@H]1CCNC1=O)NC(=O)[C@H](Cc1ccc(F)c(F)c1)n1ccc2cc(Br)[nH]c2c1=O`, in [1], the remaining at 2 h was determined as 77%. Moreover, the negative logarithm of the EC50 (pEC50) with Enterovirus A71 was 5.70.
The corresponding values for `Cc1cc(C(=O)N[C@H](C(=O)C[C@@H](Cc2ccc(F)cc2)C(=O)N[C@H](/C=C/S(=O)(=O)c2nccs2)C[C@@H]2CCNC2=O)C(C)C)no1` are 24% and 6.28.
The matching figures for `Cc1cc(C(=O)N[C@H](C(=O)C[C@@H](Cc2ccc(F)cc2)C(=O)N[C@H](/C=C/C(=O)N2CCOCC2)C[C@@H]2CCNC2=O)C(C)C)no1`: 88% and 5.05.
The corresponding values for `Cc1cc(C(=O)N[C@H](C(=O)C[C@@H](Cc2ccc(F)cc2)C(=O)N[C@H](/C=C/C(=O)N2CCCC2)C[C@@H]2CCNC2=O)C(C)C)no1` are 82% and 4.92.
Turning to `CCOC(=O)/C=C/[C@H](C[C@@H]1CCNC1=O)NC(=O)[C@H](Cc1ccc(F)c(F)c1)n1ccc2ccn(C)c2c1=O`, the pEC50 in the series with Enterovirus A71 is less than 4.00.
For the compound `O=C1OCC/C1=C\[C@H](C[C@@H]1CCNC1=O)NC(=O)[C@H](Cc1ccc(F)c(F)c1)n1ccc2cc[nH]c2c1=O`, in series [1], the remaining at 2 h is 80%. The pEC50 in the series on Enterovirus A71 is 4.88.
The corresponding values for `Cc1cc(C(=O)N[C@H](C(=O)C[C@@H](Cc2ccc(F)cc2)C(=O)N[C@H](/C=C/C(=O)OC2CCC2)C[C@@H]2CCNC2=O)C(C)C)no1` are 5.3% and 6.59.
The corresponding values for `CCOC(=O)/C=C/[C@H](C[C@@H]1CCNC1=O)NC(=O)[C@H](Cc1ccc(F)c(F)c1)n1ccc2ccn(-c3ccccn3)c2c1=O` are 0.9% and less than 4.00.
In the series on rhinovirus B14, `CCOC(=O)/C=C/[C@H](C[C@@H]1CCNC1=O)NC(=O)[C@H](Cc1ccccc1)n1ccc2cc[nH]c2c1=O` had a pEC50 of 5.90.
On to `Cc1cc(C(=O)N[C@H](C(=O)C[C@@H](Cc2ccc(F)cc2)C(=O)N[C@H](/C=C2\CC(C)OC2=O)C[C@@H]2CCNC2=O)C(C)C)no1` (stereo not given in full), for which the remaining at 2 h in [1] was determined as 81%. Besides, the negative logarithm of the EC50 (pEC50) in the series with Enterovirus A71 is 6.66.
Consider `O=C1OCC/C1=C\[C@H](C[C@@H]1CCNC1=O)NC(=O)[C@H](Cc1ccc(F)c(F)c1)n1ccc2cc(-c3ccccc3F)[nH]c2c1=O`, for which the Vd (usually the apparent volume that relates the amount in the body to the concentration in plasma or blood) in series [2] came out at 8.8 L/kg. For the same compound, in [1], the remaining at 2 h was found to be 92%. For the same compound, in the series on Enterovirus A71, the pEC50 was 6.47. In addition, the clearance (usually a measure of how efficiently the substance is removed, as volume per time) in series [3] was 140 mL/min/kg. Besides, in series [4], the half-life (as a rule, the time in which the quantity being followed falls by half) was 75.6 min. Also, the exposure (AUC) (as a rule, the area under the concentration-time curve, a measure of exposure) in [5] is 0.25 µM·h.
In the case of `CCOC(=O)/C=C/[C@H](C[C@@H]1CCNC1=O)NC(=O)[C@H](Cc1ccc(F)c(F)c1)n1ccc2cc(Br)[nH]c2c1=O`, the remaining at 2 h in series [1] was 0.3%. For the same compound, the pEC50 in the series with Enterovirus A71 is 6.30.
For the compound `Cc1cc(C(=O)N[C@H](C(=O)C[C@@H](Cc2ccc(F)cc2)C(=O)N[C@H](/C=C/S(C)(=O)=O)C[C@@H]2CCNC2=O)C(C)C)no1`, the negative-log EC50 (pEC50) with Enterovirus A71 is 5.82.
In the case of `Cc1cc(C(=O)N[C@H](C(=O)C[C@@H](Cc2ccc(F)cc2)C(=O)N[C@H](/C=C/C(=O)N2CCC(F)(F)C2)C[C@@H]2CCNC2=O)C(C)C)no1`, the remaining at 2 h in series [1] was 54%. Also, the pEC50 with Enterovirus A71 is 6.12.
`Cc1cc(C(=O)N[C@H](C(=O)C[C@@H](Cc2ccc(F)cc2)C(=O)N[C@H](/C=C/C(=O)N2CCC(F)(F)CC2)C[C@@H]2CCNC2=O)C(C)C)no1`: in series [1], the remaining at 2 h was found to be 63%. The pEC50 in the series with Enterovirus A71 is 5.91.
With `CCOC(=O)/C=C/[C@H](C[C@@H]1CCNC1=O)NC(=O)[C@H](Cc1ccc(F)c(F)c1)n1ccc2ccn(CC3CC3)c2c1=O`, the pEC50 with Enterovirus A71 is less than 4.00.
Turning to `CCOC(=O)/C=C/[C@H](C[C@@H]1CCNC1=O)NC(=O)[C@H](Cc1ccc(F)c(F)c1)n1ccc2cc[nH]c2c1=O`, in series [1], the remaining at 2 h amounted to 1%. In the series on Enterovirus A71, the pEC50 is 5.45.
Compound `Cc1cc(C(=O)N[C@H](C(=O)C[C@@H](Cc2ccc(F)cc2)C(=O)N[C@H](/C=C2\CCOC2=O)C[C@@H]2CCNC2=O)C(C)C)no1` gave a Vd in series [2] of 1.6 L/kg. The Cmax – broadly, the highest concentration seen after dosing – in [6] turned out to be 2570 nM. Moreover, the half-life was 10.8 min in [7] and 12 min in [4]. Besides, the remaining at 2 h in [1] was determined as 88%. Besides, in the series with Enterovirus A71, the pEC50 was 7.55. For the same compound, in [3], the clearance was determined as 130 mL/min/kg. The bioavailability in series [8] was 115%. Further, the exposure (AUC) was found to be 0.444 µM·h in series [5] and 1.28 µM·h in [9].
Take `CCOC(=O)/C=C/[C@H](C[C@@H]1CCNC1=O)NC(=O)[C@@H](CC(=O)[C@@H](NC(=O)c1cc(C)on1)C(C)C)Cc1ccc(F)cc1` [RUPINTRIVIR]: in [1], the remaining at 2 h is 2.7%. Besides, in the series with Enterovirus A71, the pEC50 is 8.05.
